Drawing on PubChem BioAssay (NCI), this text covers TGI and GI50 for 16 compounds.

Among the test systems are 786-0 renal; COLO 205 colon; EKVX NSCLC; HOP-62 NSCLC; LOX IMVI melanoma; OVCAR-8 ovarian; SK-MEL-28 melanoma; TK-10 renal; PC-3 prostate; HS 578T breast.
Assay in all cases: NCI-60 cell line screen, 48 h

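Protocol summary: plate cells (96-well), add compound at 5 concentrations, incubate 48 h, interpolate endpoints linearly. GI50: concentration for 50% inhibition of growth. At the TGI there is no net growth.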

On to `C[C@]12CCC(=O)C=C1CC[C@@H]1C2CC[C@@]2(C)C1CC[C@@H]2OC(=O)C12OC1CCC2=O` (stereo not given in full), for which the TGI came out at 30 µM in the test with 786-0 renal; 34.4 µM in the test with COLO 205 colon; 31.9 µM with EKVX NSCLC; 70 µM with HOP-62 NSCLC; 31.1 µM in the test on LOX IMVI melanoma; 38.6 µM with OVCAR-8 ovarian. The TGI with SK-MEL-28 melanoma stood at 31.6 µM; in the test on TK-10 renal, 35.9 µM.
`O=c1[nH]c(-c2ccc(Cl)cc2)cc2ccsc12`: the TGI with COLO 205 colon, with EKVX NSCLC, in the test with HOP-62 NSCLC, with LOX IMVI melanoma, with OVCAR-8 ovarian and in the test with PC-3 prostate was greater than 100 µM each time. Moreover, the TGI in the test on SK-MEL-28 melanoma is greater than 100 µM; in the test with TK-10 renal, 8.22 µM.
Regarding `COC(=O)CC1NC(=O)C1C(C)(OC)OC` (stereo not given), the TGI in the test on 786-0 renal, in the test on COLO 205 colon, in the test with EKVX NSCLC, in the test on HOP-62 NSCLC, in the test with LOX IMVI melanoma and in the test with OVCAR-8 ovarian was greater than 100 µM in each case. For the same compound, the TGI in the test on SK-MEL-28 melanoma and in the test on TK-10 renal was greater than 100 µM in each case.
For the compound `O=C1[C@H](O)[C@@H]2CCC[C@@]23CCCN13`, the TGI with 786-0 renal, in the test on COLO 205 colon, with EKVX NSCLC, in the test on HOP-62 NSCLC, in the test with HS 578T breast and in the test with LOX IMVI melanoma was greater than 100 µM each time. For the same compound, the TGI with OVCAR-8 ovarian and in the test with TK-10 renal was greater than 100 µM throughout.
For the compound `COC(=O)[C@@H](NC(=O)c1ccc(CNC(=O)/C(C)=C/c2ccccc2)cc1)C(C)C`, the TGI in the test on 786-0 renal, with COLO 205 colon, with EKVX NSCLC, in the test with HOP-62 NSCLC, with LOX IMVI melanoma and in the test with OVCAR-8 ovarian was greater than 100 µM in each case. For the same compound, the TGI in the test with PC-3 prostate, in the test with SK-MEL-28 melanoma and in the test on TK-10 renal was greater than 100 µM throughout.
Take `CCSc1[nH]c(NC(=NC(C)C)NC(=O)c2ccccc2)c(C(N)=O)c1C(N)=O`: the TGI in the test with 786-0 renal, in the test with COLO 205 colon, in the test with EKVX NSCLC, in the test on LOX IMVI melanoma, in the test on OVCAR-8 ovarian and with PC-3 prostate was greater than 10 µM in each case. Moreover, the TGI with SK-MEL-28 melanoma and in the test on TK-10 renal was greater than 10 µM each time.
For `Brc1ccc(C[N+]23CN4CN(CN(C4)C2)C3)cc1`, the TGI with 786-0 renal is greater than 100 µM; in the test with COLO 205 colon, 69.4 µM; in the test with EKVX NSCLC, greater than 100 µM; in the test on HOP-62 NSCLC it was greater than 100 µM; in the test with LOX IMVI melanoma it was 48 µM; in the test on OVCAR-8 ovarian, 99.7 µM. Besides, the TGI with SK-MEL-28 melanoma and in the test with TK-10 renal was greater than 100 µM in each case.
Turning to `CN(C)CCNC(=O)c1cccc2[nH]c(-c3ccc(Cl)cc3)nc12`, the TGI in the test with COLO 205 colon turned out to be 9.29 µM; in the test on EKVX NSCLC, 34.3 µM; in the test on HOP-62 NSCLC, 22.5 µM; in the test on LOX IMVI melanoma it was 13.8 µM; in the test with OVCAR-8 ovarian, 20.8 µM; in the test on SK-MEL-28 melanoma, 31.9 µM.
In the case of `Cc1cc2nc(CC(C(F)(F)F)C(F)(F)F)oc2cc1C`, the TGI in the test on COLO 205 colon worked out at 4.98 µM; in the test on EKVX NSCLC, 7.6 µM; in the test on HOP-62 NSCLC it was 17.2 µM; in the test with HS 578T breast, 16.6 µM; with LOX IMVI melanoma it was 1.44 µM; in the test with OVCAR-8 ovarian, 3.23 µM. The TGI with PC-3 prostate is 5.43 µM; with SK-MEL-28 melanoma, 15.8 µM; in the test with TK-10 renal, 39.7 µM.
For `O=C(NCCC1CN(S(=O)(=O)C(F)(F)F)c2ccccc21)OCc1ccccc1` (stereo not given), the TGI in the test with 786-0 renal, in the test with COLO 205 colon, in the test on EKVX NSCLC, in the test with HOP-62 NSCLC, in the test on HS 578T breast and with OVCAR-8 ovarian was greater than 100 µM in each case. Further, the TGI in the test on PC-3 prostate and in the test with SK-MEL-28 melanoma was greater than 100 µM in each case.
Turning to `Cc1ccc(S(=O)(=O)NCCCSCCO)cc1`, the TGI with COLO 205 colon, with HS 578T breast, in the test with LOX IMVI melanoma, in the test on OVCAR-8 ovarian, in the test on PC-3 prostate and in the test on SK-MEL-28 melanoma was greater than 100 µM each time. In the test with TK-10 renal, this compound yielded a TGI greater than 100 µM.
Take `CNC(=O)c1cc(Oc2cccc3nc(NC(=O)Nc4ccc(F)cc4F)ccc23)ccn1`: the GI50 in the test with HS 578T breast is 1.4 µM; with LOX IMVI melanoma it was 1.68 µM; with OVCAR-8 ovarian it was 1.65 µM; in the test with SK-MEL-28 melanoma, 1.42 µM. The TGI with HS 578T breast is 3.99 µM; in the test on LOX IMVI melanoma, greater than 50 µM; in the test with OVCAR-8 ovarian, greater than 50 µM; in the test on SK-MEL-28 melanoma, greater than 50 µM.
Regarding `Cc1cc(=O)[nH]c(NNC(C#N)c2ccc(N(C)C)cc2)n1` (stereo not given), the TGI in the test with 786-0 renal, in the test on COLO 205 colon, in the test with HOP-62 NSCLC, with LOX IMVI melanoma, with OVCAR-8 ovarian and in the test on SK-MEL-28 melanoma was greater than 100 µM in each case. The TGI in the test with TK-10 renal is greater than 100 µM.
With `O=C1NC2OC(CO)C(O)C(O)C2O1` (stereo not given), the TGI with 786-0 renal, in the test with COLO 205 colon, in the test on EKVX NSCLC, with HOP-62 NSCLC, with LOX IMVI melanoma and in the test with OVCAR-8 ovarian was greater than 100 µM each time. Also, the TGI in the test with SK-MEL-28 melanoma and with TK-10 renal was greater than 100 µM throughout.
On to `COC(=O)C1=C(C)NC2=C(C(=O)c3ccccc32)C1c1cn[nH]c1-c1ccccc1` (stereo not given), for which the TGI in the test with 786-0 renal is greater than 100 µM; in the test on COLO 205 colon, 52 µM; in the test with EKVX NSCLC, greater than 100 µM; in the test with HOP-62 NSCLC it was greater than 100 µM; in the test with HS 578T breast, greater than 100 µM; with OVCAR-8 ovarian it was greater than 100 µM. Also, the TGI with PC-3 prostate and in the test on SK-MEL-28 melanoma was greater than 100 µM each time.
Take `CCC1OC2C(CC=C(C)C)=C3OC(C)(O)C(C)(CC)C(=O)C3=C3OC(=O)C=C1C32` (stereo not given): the TGI is greater than 100 µM in the test on 786-0 renal; 37 µM in the test on COLO 205 colon; greater than 100 µM in the test with EKVX NSCLC; 27.3 µM in the test with LOX IMVI melanoma; greater than 100 µM in the test on PC-3 prostate; greater than 100 µM in the test with SK-MEL-28 melanoma. The same compound had a TGI with TK-10 renal greater than 100 µM.
